Measured values from EPA's ToxRefDB 2.

Experiments:
[1] = system: rat; details: Prenatal developmental toxicity study; sprague dawley; Oral; Gavage/Intubation; dose end: 15 GD; group: maternal; reproductive / reproductive performance / postimplantation loss / postimplantation loss + reproductive / reproductive performance / …
[2] = system: dog; details: Chronic toxicity, beagle, Oral, Feed, dose end: 104 week
[3] = system: rat; details: Combined chronic toxicity/carcinogenicity, sprague dawley, Oral, Feed, dose end: 103 week
[4] = system: rat; details: Subchronic oral toxicity in rodents, Feed, dose end: 13 week
[5] = group: cholinesterase, cholinesterase / cholinesterase / cholinesterase / brain cholinesterase (che) + cholinesterase / cholinesterase / cholinesterase / whole …
[6] = group: systemic, systemic / in life observation / water consumption / water consumption
[7] = group: cholinesterase, cholinesterase / cholinesterase / cholinesterase / brain cholinesterase (che)
[8] = group: cholinesterase, cholinesterase / cholinesterase / cholinesterase / brain cholinesterase (che) + cholinesterase / cholinesterase / cholinesterase / plasma …
[9] = group: systemic, systemic / pathology microscopic / eye / cataract
[10] = group: cholinesterase, cholinesterase / cholinesterase / cholinesterase / whole blood cholinesterase (che) + cholinesterase / cholinesterase / cholinesterase / …
[11] = group: systemic, systemic / in life observation / food consumption / food consumption

Which results are given for `CNC(=O)Oc1cccc2c1OC(C)(C)O2` [Bendiocarb]?
LEL [1]: 10 mg/kg/day; LOAEL [1]: 10 mg/kg/day; NEL [1]: 2 mg/kg/day; NOAEL [1]: 2 mg/kg/day; LEL [2, 5]: 15 mg/kg/day; LOAEL [2, 5]: 15 mg/kg/day; NEL [2, 5]: 3 mg/kg/day; NOAEL [2, 5]: 3 mg/kg/day; LEL [2, 6]: 3 mg/kg/day; LOAEL [2, 6]: > 15 mg/kg/day; NEL [2, 6]: 0.7 mg/kg/day; NOAEL [2, 6]: ≥ 15 mg/kg/day; LEL [3, 7]: 0.86 mg/kg/day; LOAEL [3, 7]: 0.86 mg/kg/day; NEL [3, 8]: 0.42 mg/kg/day; NOAEL [3, 8]: 0.42 mg/kg/day; LEL [3, 9]: 0.72 mg/kg/day; LOAEL [3, 9]: 0.72 mg/kg/day; NEL [3, 9]: 0.35 mg/kg/day; NOAEL [3, 9]: 0.35 mg/kg/day; NEL ([4]; group: cholinesterase, cholinesterase / cholinesterase / cholinesterase / plasma cholinesterase (che) + cholinesterase / cholinesterase / cholinesterase / whole …): 0.5 mg/kg/day; LEL ([4]; group: cholinesterase, cholinesterase / cholinesterase / cholinesterase / whole blood cholinesterase (che)): 2.5 mg/kg/day; LOAEL [4, 10]: > 12.5 mg/kg/day; NOAEL [4, 10]: ≥ 12.5 mg/kg/day; LEL [4, 11]: 12.5 mg/kg/day; LOAEL [4, 11]: 12.5 mg/kg/day; NEL [4, 11]: 2.5 mg/kg/day; NOAEL [4, 11]: 2.5 mg/kg/day
